{"source": "patent US20030065039A1", "about": "“Biologically active 1,3-bis-aromatic-prop-2-en-1-ones, 1,3-bis-aromatic-propan-1-ones, and 1,3-bis-aromatic-prop-2-yn-1-ones” (Statens Serum Institute, priority 1997, published 2003)", "key": {"Peptostreptococcus": {"tested_on": "Peptostreptococcus", "assay": "Effect on anaerobic bacteria (growth)", "format": "cell-based", "conditions": "at a concentration of 5 μg/ml"}, "NDH (L. major)": {"molecular_target": "NDH (L. major)", "assay": "Effect on L. major NADH dehydrogenase", "format": "biochemical, Leishmania major", "conditions": "incubation at 28° C.", "from_the_text": "FIG. 11. Effect of licochalcone A on Leishmania major NADH dehhydrogenase. […] Data are mean ±SEM from 6 different experiments."}, "Bacteroides fragilis": {"tested_on": "Bacteroides fragilis", "assay": "Effect on anaerobic bacteria (growth)", "format": "cell-based", "conditions": "at a concentration of 5 μg/ml"}, "[1]": {"assay": "Single dose toxicity in mice", "format": "in vivo", "method": "(§1) Also in rats, LDlow po>1000 mg/kg was found. Studies carried out later in the project using the dosing schedule, also used to measure effects against the malaria parasites, confirmed the very good oral tolerance to all compounds tested."}, "FRD (L. major)": {"molecular_target": "FRD (L. major)", "assay": "Effect on fumarate reductase of L. major promastigotes", "format": "biochemical, Leishmania major", "conditions": "incubation at 28° C. for 5 min", "method": "FIG. 5. Effect of licochalcone A on Leishmania major fumarate reductase. Digitonin treated promastigotes was incubated with licochalcone A at 28° C. 30 min, and the remaining enzyme activity was measured. Data are mean ±SEM from 6 different experiments.\nFIG. 6. Effect of licochalcone A on Leishmania major fumarate reductase. KCL-solubilised fumarate reductase was incubated with licochalcone A at 28° C. 30 min, and the remaining enzyme activity was measured. Data are mean ±SEM from 6 different experiments.\nParasites were harvested by centrifugation at 1000 g for 10 min, and were washed 2 times in an isotonic phosphate saline buffer (50 mM sodium phosphate, pH 7.2, 90 mM NaCl, 5 mM KCl). […]\nNADH-FRD activity was determined as the rate of NADH-oxidation upon addition of 1 mM fumarate in the KCl-solubilized fraction. The reaction was monitored spectrophotometrically at 340 nm ((=6.2 mM^−1 cm^−1) using 100 μM NADH and usually 0.1 mg protein in both reference and sample cuvettes. The measurement was carried out in a Shimadzu UV-190 double-beam spectrophotometer. Protein concentrations were determined using a Bio-Rad protein assay (Bio-Rad Laboratories, 200 Alfred Nobel Dr. Hercules, Calif. 94547, USA).\nKCl solubilized fraction of Leishmania major promastigotes was incubated with different concentrations of various oxygenated chalcones at 28° C. and the remaining FRD activity was measured."}, "Clostridium perfringes": {"tested_on": "Clostridium perfringes", "assay": "Effect on anaerobic bacteria (growth)", "format": "cell-based", "conditions": "at a concentration of 5 μg/ml"}, "SCC (L. major)": {"molecular_target": "SCC (L. major)", "assay": "Effect on L. major succinate-cytochrome c reductase", "format": "biochemical, Leishmania major", "conditions": "incubation at 28° C. for 5 min", "method": "FIG. 12. Effect of licochalcone A on Leishmania major succinate-cytochrome c reductase. Membrane rich fraction of parasite was incubated with licochalcone A at 28° C. for 5 min, the remaining enzyme activity was measured. Data are mean ±SEM from 4 different experiments."}, "NCC (L. major)": {"molecular_target": "NCC (L. major)", "assay": "Effect on L. major NADH-cytochrome c reductase", "format": "biochemical, Leishmania major", "conditions": "incubation at 28° C. for 5 min", "method": "FIG. 13. Effect of licochalcone A on Leishmania major NADH-cycochrome c reductase. Membrane rich fraction of parasite was incubated with licochalcone A at 28° C. for 5 min, the remaining enzyme activity was measured. Data are mean ±SEM from 4 different experiments."}, "[2]": {"assay": "Single dose toxicity in rats", "format": "in vivo", "method": "as §1"}, "SDH (human MNC)": {"molecular_target": "T1, SDH (human MNC) (Homo sapiens, UniProt P31040)", "T1 construct": "endogenous in cells; host or cells: human blood mononuclear cells (MNC), membrane rich fraction", "T1 sequence (P31040 43-664)": "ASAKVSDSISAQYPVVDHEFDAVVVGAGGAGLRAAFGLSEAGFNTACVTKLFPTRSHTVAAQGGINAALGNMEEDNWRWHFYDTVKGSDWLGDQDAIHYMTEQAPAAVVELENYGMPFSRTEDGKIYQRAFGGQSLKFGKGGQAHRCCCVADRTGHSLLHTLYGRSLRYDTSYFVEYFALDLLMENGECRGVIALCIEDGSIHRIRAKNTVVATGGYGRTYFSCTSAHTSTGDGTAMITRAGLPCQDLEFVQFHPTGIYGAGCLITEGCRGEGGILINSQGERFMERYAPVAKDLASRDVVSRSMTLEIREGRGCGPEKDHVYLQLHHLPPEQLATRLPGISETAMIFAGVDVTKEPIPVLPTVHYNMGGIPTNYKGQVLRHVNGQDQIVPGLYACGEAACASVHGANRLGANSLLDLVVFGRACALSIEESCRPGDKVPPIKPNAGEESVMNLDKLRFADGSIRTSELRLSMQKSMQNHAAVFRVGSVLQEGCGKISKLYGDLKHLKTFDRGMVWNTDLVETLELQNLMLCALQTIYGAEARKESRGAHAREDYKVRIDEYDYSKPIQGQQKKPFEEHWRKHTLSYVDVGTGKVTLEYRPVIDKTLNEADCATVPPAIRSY", "T1 sequence (P21912 29-280 partner)": "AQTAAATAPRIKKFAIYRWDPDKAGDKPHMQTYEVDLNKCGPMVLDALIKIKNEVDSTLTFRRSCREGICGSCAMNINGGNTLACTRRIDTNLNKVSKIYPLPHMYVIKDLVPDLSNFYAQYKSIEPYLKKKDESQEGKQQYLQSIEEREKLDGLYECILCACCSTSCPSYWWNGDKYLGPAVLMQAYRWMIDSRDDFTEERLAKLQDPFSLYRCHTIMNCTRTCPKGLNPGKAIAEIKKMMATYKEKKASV", "T1 sequence (Q99643 30-169 partner)": "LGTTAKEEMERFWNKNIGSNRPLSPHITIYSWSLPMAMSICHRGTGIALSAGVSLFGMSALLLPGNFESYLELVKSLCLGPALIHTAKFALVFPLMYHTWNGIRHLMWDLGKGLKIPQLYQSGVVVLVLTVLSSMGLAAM", "T1 sequence (O14521 57-159 partner)": "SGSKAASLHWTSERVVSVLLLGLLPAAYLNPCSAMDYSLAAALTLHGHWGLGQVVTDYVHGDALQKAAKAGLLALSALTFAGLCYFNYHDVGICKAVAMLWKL", "assay": "Effect on human MNC succinate dehydrogenase", "format": "biochemical", "conditions": "incubation at 28° C. for 5 min"}, "[3]": {"tested_on": "parasite mitochondrial dehydrogenase", "assay": "Parasite mitochondrial dehydrogenase activity", "format": "biochemical, Leishmania major"}, "SDH (L. major)": {"tested_on": "SDH (L. major)", "assay": "Effect on succinate dehydrogenase of L. major promastigotes", "format": "biochemical, Leishmania major", "from_the_text": "FIG. 10. Licochalocone A on SDH of L. major promastigotes (membrane rich fraction)"}, "NDH (J774)": {"tested_on": "NDH (J774)", "assay": "Effect on J774 cells NADH dehydrogenase", "format": "biochemical", "conditions": "incubation at 28° C. for 5 min", "method": "FIG. 17. Effect of licochalcone A on J774 cells NADH dehydrogenase. Membrane rich fraction of parasite was incubated with licochalcone A at 28° C. for 5 min, the remaining enzyme activity was measured. Data are mean ±SEM from 4 different experiments."}, "Leishmania major": {"tested_on": "Leishmania major", "assay": "Respiration of Leishmania major (O2 consumption, CO2 production)", "format": "cell-based"}, "CHO cells": {"tested_on": "CHO cells", "assay": "Chromosomal aberration assay with CHO cells", "format": "cell-based", "conditions": "both with and without metabolic activation (S9 mix)"}}, "note": "Marks after values point to notes of the source that are not given here."}
{"smiles": "C=CC(C)(C)c1cc(/C=C/C(=O)c2ccc(O)cc2)c(OC)cc1O", "note": "[Licochalcone A]", "values": [{"measurement": "growth of Peptostreptococcus", "setting": "Peptostreptococcus", "result": "completely inhibted"}, {"measurement": "IC50", "setting": "NDH (L. major)", "result": 415.1, "unit": "μg/mg protein"}, {"measurement": "growth of Bacteroides fragilis", "setting": "Bacteroides fragilis", "result": "completely inhibted"}, {"measurement": "LDlow po", "setting": "[1]", "result": "> 1000", "unit": "mg/kg"}, {"measurement": "IC50", "setting": "FRD (L. major)", "result": 54.7, "unit": "μg/mg protein"}, {"measurement": "growth of Clostridium perfringes", "setting": "Clostridium perfringes", "result": "completely inhibted"}, {"measurement": "IC50", "setting": "SCC (L. major)", "result": 647.6, "unit": "μg/mg protein"}, {"measurement": "IC50", "setting": "NCC (L. major)", "result": 387.5, "unit": "μg/mg protein"}, {"measurement": "LDlow po", "setting": "[2]", "result": "> 1000", "unit": "mg/kg"}, {"measurement": "IC50", "setting": "SDH (human MNC)", "result": 799.7, "unit": "μg/mg protein"}, {"measurement": "activity of the parasite mitochondrial dehydrogenase", "setting": "[3]", "result": "inhibited the activity of the parasite mitochondrial dehydrogenase"}, {"measurement": "inhibition", "setting": "SDH (L. major); at 250 μg/mg protein", "result": "*29% inhibition at 250 μg/mg protein"}, {"measurement": "IC50", "setting": "SDH (L. major); incubation at 28° C. for 5 min", "result": ">250* μg/mg protein"}, {"measurement": "IC50", "setting": "NDH (J774)", "result": 547.7, "unit": "μg/mg protein"}, {"measurement": "respiration of the parasite (O2 consumption, CO2 production)", "setting": "Leishmania major", "result": "inhibited the respiration of the parasite in a concentration-dependent manner"}]}
{"smiles": "COc1cc(/C=C/C(=O)c2ccc(C3CCCCC3)cc2)cc(OC)c1", "note": "[PH104, 3,5-dimethoxy-4′-cyclohexylchalcone]", "values": [{"measurement": "melting point", "result": "75.5 to 76.2", "unit": "°C"}]}
{"smiles": "C=CCOc1ccc(C(=O)/C=C/c2cc(OC)cc(OC)c2)cc1", "note": "[SBC-35ma, 3,5-dimethoxy-4′-allyloxychalcone]", "values": [{"measurement": "chromosomal aberration assay with CHO cells", "setting": "CHO cells", "result": "clear clastogenic response"}]}
